US20140329692A1, “METHOD FOR MEASURING DNA METHYLATION PROFILES” (ALBERT EINSTEIN COLLEGE OF MEDICINE OF YESHIVA UNIVERSITY, priority 2013, published 2014)

What was measured:
promoter region of Oct4 = test: DNA methylation profile of the Oct4 promoter in 5-Aza-treated MEFs (bisulfite treatment, MDA amplification, nested PCR, Sanger sequencing); format: cell-based, mouse; conditions: 1 μM 5-Aza
Text: To definitively test the protocol, it was investigated whether it was capable of directly detecting epimutations, i.e., random changes in methylation status of single cytosines as a consequence of, for example, errors in de novo or maintenance methylation. While estimates of DNA methylation accuracy have been reported (13, 14), it has never been possible to directly determine such epimutations. To test if the method was able to detect single cell-specific epimutations, a time course experiment was performed in MEFs treated with 5-azacytidine (5-Aza). 5-Aza prevents methylation at CpG sites in newly synthesized DNA through covalent binding to Dnmt1 (15). […] Cultured cells were treated with 1 μM 5-Aza for 48 and 72 hours; ten single cells as well as 100-cell controls from each treatment group were subjected to lysis and bisulfite treatment followed by MDA amplification. Then the promoter region of Oct4 was tested and it was shown that a fully methylated pattern of CpG sites was present in the untreated single fibroblasts as well as in the 100-cell control (FIG. 1B, upper panel).
Isolation of single mouse embryonic fibroblasts: Mouse embryonic fibroblasts (MEFs) were isolated from embryonic day 13.5 embryos of C57BL/6 mice as described (31). All cultures were maintained in a 3% O2 and 5% CO2 atmosphere. The solutions of 5-aza-2′-deoxycytidine (5-Aza; Sigma, St. Louis, Mo., USA) in culturing medium were prepared at the time of application and applied every 24 hours for 72 hours. After trypsinization, single MEFs were collected under an inverted microscope by hand-held capillaries, deposited in PCR tubes and immediately frozen on dry ice and stored at […] until needed or immediately bisulfite-converted.
Bisulfite conversion: The bisulfite conversion and recovery of DNA were performed using the EZ DNA Methylation-Direct Kit (Zymo Research, Orange, Calif.). Bisulfite conversion was performed according to the instructions of the supplier with some modifications. First the bisulfite solution was added to the single or 100 cells together with 2 ng of salmon sperm DNA or tRNA. […]

global methylation = conditions: 5-Aza treatment; cited from earlier work

Nc1ncn([C@H]2C[C@H](O)[C@@H](CO)O2)c(=O)n1 [5-Aza, 5-aza-2′-deoxycytidine]
demethylation of Oct4 promoter (promoter region of Oct4; 48 hours, 100-cell sample): < 50% | methylation status of Oct4 promoter CpG sites (promoter region of Oct4; 48 hours, single fibroblasts): a mixed population was found comprising either methylated or unmethylated cytosines | methylation status of Oct4 promoter CpG sites (promoter region of Oct4; 72 hours, both single fibroblasts and 100-cell control sample): fully demethylated | global methylation (global methylation): significant decrease in global methylation
